Legend:
[1] = test system: CD4+CD25+Fox P3+ T-regulatory cells; conditions: tumor bearing mice, one injection 100 mg/kg on Day 46, spleens day 49; p=0.02
Experimental: Control mice received either poyIC or saline.
Mice received one injection of cyclophosphamide (CTX, 100 mg/kg) on days 46 […]. On day 49, spleens were removed from 3 mice in each group and the percentage of CD25^+ and Fox P3^+ cells were calculated within the total CD4^+ population (FIG. 6).

[2] = test system: HPV-16 transformed tumor cells; test: Adjunctive therapy in late stage cancer, tumor progression (Example 10); assay type: in vivo, C57BL/6 mice; conditions: CTX 30 mg/kg Day 14, 18, immunization Day 20, 24, 34, 38, n=20
Source text: Tumor progression (FIG. 11, Panel A) and immune response (FIG. 11, Panel B) was compared to untreated tumor control mice (n=20).

[3] = test system: HPV-16 transformed tumor cells; test: Adjunctive therapy, survival (Kaplan-Meier) (Example 11); assay type: in vivo, C57BL/6 mice; conditions: two therapeutic cycles; Kaplan-Meier estimates; n=20
Experimental: The effect of adjunctive therapy on survival was also evaluated in C57BL/6 mice inoculated with 10^5 HPV-16 transformed tumor cells as described in Example 10. A second therapeutic cycle was administered in which animals received CTX (30 mg/kg) on Day 46 and 50 (n=20), immunization with E749-57 HPV peptide and dsRNA (25 μg/Day) in bilateral inguinal lymph nodes on Day 52, 56, 65, and 69 (n=20), or were treated with a combination of CTX and immunotherapy (n=20). Kaplan-Meier (product-limit) estimates of the survival function were obtained for each of the four conditions (Control, CTX Only, Immunotherapy Only and CTX/Immunotherapy Combined), as shown in FIG. 12. Log-Rank tests were used to compare the four survival curves.

[4] = test system: HPV-16 transformed tumor cells; test: Adjuvant efficacy: immunotherapy after primary tumor removal (Example 13); assay type: in vivo, C57BL/6 mice
Experimental: A separate cohort is left untreated and tumors are removed at day 20 using surgery or irradiated using conventional radiotherapy. […] Additional control arms are treated with CTX, radiotherapy or surgery but not immunized.

[5] = test system: HPV-16 transformed tumor cells; test: Neoadjuvant efficacy: immunotherapy prior to primary tumor treatment (Example 14); assay type: in vivo, C57BL/6 mice
Experimental: Then mice are treated with CTX (100 mg/kg) starting on day 30 or by radiotherapy, every other day until the animals reach complete remission (FIG. 15). A separate cohort has the tumor removed on day 30 but no treatment with CTX. The animals are then observed for tumor relapse.

[6] = test system: HPV-16 transformed tumor cells; test: Consolidation therapy: immunotherapy post chemotherapy (Example 15); assay type: in vivo, C57BL/6 mice; conditions: CTX 100 or 30 mg/kg on days 14 and 16
Experimental: The animals are rested for 7 days until the number of lymphocytes in the blood reaches normal levels. At that point, all animals show reduced disease or complete remission relative to pre-treatment stage. […] Additional control arms are treated with CTX or radiotherapy but not immunized.

[7] = test system: CD4+/CD25+/FoxP3+ T regulatory cells; conditions: intraperitoneal 100 mg/kg; mice bearing HPV-16 transformed tumors
[8] = test system: HPV-16 transformed tumor cells; test: Adjunctive therapy: immunotherapy accompanying chemotherapy (Example 16); conditions: CTX 100 or 30 mg/kg on days 14 and 16
Experimental: C57BL/6 mice are inoculated subcutaneously with 10^5 HPV-16 transformed tumor cells on Day 0, and treated with CTX (100 or 30 mg/kg) on days 14 and 16 or treated by radiotherapy. […] Additional control arms are treated with CTX but not immunized.

Structure (SMILES): O=P1(N(CCCl)CCCl)NCCCO1 (centres unmarked) [cyclophosphamide]
- levels of T-regulatory cells (CD25+ Fox P3+ within total CD4+) in spleen [1]: significantly reduced levels
- tumor regression compared to untreated tumor controls [2]: did not significantly induce tumor regression
- median survival time [3]: 68 days
- remission after primary treatment ([4]; CTX 100 mg/kg from day 14 every other day): attain complete remission
- relapse without follow up immunotherapy ([4]; after complete remission): relapse in a significant number
- remission in unimmunized animals ([5]; CTX 100 mg/kg from day 30 every other day): attain partial or complete remission
- relapse in unimmunized animals ([5]; after CTX, radiotherapy or surgery): relapse in a significant number
- remission after treatment [6]: attain partial remission or complete remission within 10 days after treatment
- level of T-regs in spleen [7]: reduced
- level of T-regs in the tumor [7]: reduced
- remission after CTX treatment [8]: attain partial remission or complete remission within 20 days after CTX treatment
